Assay results: patent publication US8809368B2, “Compounds affecting gap junction activity” (Kansas State University Research Foundation, priority 2006, dated 2014)
≈ marks a conversion by molar mass, not a printed value. Where “and” joins values, the source holds several entries; their conditions need not be identical. Equal entries are not always repeated.

Key:
[1] = test system: MDA-MB-453 human breast cancer cells; test: Soft agar colony growth, MDA-MB-453 cells; assay type: cell-based; conditions: for effect on breast cancer cell colony growth: Table 2
Description: FIG. 3(A) MDA-MB-453 and (B) T47D human breast cancer cells were treated with 10 μM of various quinolines for 7 days. Base agar plates were prepared containing 0.8% agar and 0.4% agar in Ham's F12. Cells (5×10^4 cells/33 mm well) were suspended in 100 μl of Ham's F12 with 0.4% agar and plated. These plates were maintained at 37° C. for 7 days and examined for the presence of colonies. Individual colonies of 40 μm or greater were examined. […] However, PQ3 caused a 2.3-fold increase in colony growth in MDA-MB-453 cells and PQ2 caused a 2.6-fold increase in T47D colony growth compared to DMSO. FIGS. 7 and 8 show MDA-MB-453 and T47D colony growth for various concentrations of PQ1 and SA tested for 7 days. The procedures are generally as described above. The cell colony growth decreased using 10 and 100 nM PQ1 for both cell types. Colony Growth Assay: T47D human breast cancer cells were treated with PQ1. Base agar plates were prepared containing 0.8% agar and 0.4% agar in Ham's F12. Cells (5×10^4 cells/33 mm2 well) were suspended in 100 μl of Ham's F12 with 0.4% agar and plated. These plates were maintained at 37° C. for 7 days and examined for the presence of colonies. Individual colonies of 40 um or greater were examined.

MCF-7 = test: Gap junction intercellular communication, MCF-7 cells; assay type: cell-based, human; conditions: Table 1
MDA-MB-453 cells = test: Gap junction activity (GJIC), flow cytometry of dye coupling, MDA-MB-453 cells; assay type: cell-based, human; conditions: for effect on gap junction intercellular communication: Table 1
Description: FIG. 4(A) MDA-MB-453 and (B) T47D cells were treated with low (500 nM) and high (10 μM) concentrations of PQs for 24 hours. Monolayers of acceptor cell population were grown on 25-cm flasks in the presence of Vibrant DiD. Vybrant DiD in acceptor cells is not able to pass through the gap junctions because of its hydrophobic property. Single cell suspensions of donor treated cells were prepared, labeled with 0.05 μg/ml calcein-AM, incubated at 37 C for 5 minutes. Quantification of dye coupling between the donor and acceptor cells was assessed by dual-excitation flow cytometry. […] Cells treated with 10 μM PQ3 have approximately 40-50% decrease in gap junction activity compared control or DMSO.

Trypanosoma brucei = test: Anti-trypanosomal activity, inhibition of T. brucei growth (ATP-bioluminescence luciferase assay); assay type: cell-based; conditions: read-out: IC50 against Trypanosoma brucei
Description: The antiparasitic activities of exemplary compounds described here was studied using the anti-trypanosomal activity protocol described in: Rapp M, et al. J Med Chem 2006; 49:2096-102. […] FIG. 1 summarizes the compound inhibition of T. brucei growth. It is seen that compounds of the invention are useful in inhibiting T. brucei growth.
Culturing of Parasites. The bloodstream form of Trypanosoma brucei 427 strain was maintained under the standard cell culture conditions (37° C., 5% CO2). The parasites were grown in complete HMI-9 medium containing 10% FBS, 10% Serum Plus and 1× Penicillin/Streptomycin. (Angew. Chem. Int. Ed. Engl. 2003, 42, 5274-5293).
Luciferase Assay. Luciferase assay was used to measure ATP-bioluminescence in T. brucei cultured in 96-well plates at 37° C. for 48 hours. Parasites were diluted to 1.0×10^5 cells/mL in complete HMI-9 medium. One hundred microliters (100 μL) of the diluted parasites were aliquoted into sterile 96-well flat white opaque culture plates (Greiner). Each compound was serially diluted from 10 μM to 0.1 μM in DMSO and then mixed in the appropriate wells containing parasites. The treated parasites were then incubated for 48 hours at 37° C. with 5% CO2 before monitoring viability. To measure the viability of the parasites after treatment with each compound, the parasites were lysed in the wells by adding 100 μL of CellTiter-Glo™ (Promega). After lysis, the ATP bioluminescence of the 96-well plates was measured with a SpectraFluor Plus multidetection plate reader (Tecan).

R28 cells = test: Dye transfer/scrape loading gap junction assay in R28 cells; assay type: cell-based, rat; conditions: 10 μM for 40 minutes
Description: To determine the effects of the compounds of the invention on gap junctions, […] R28 cells and lucifer yellow dye and rhodamine dextran were used to study gap junction. (Das, S.; Lauer, J.; Barnett, M.; Lin, D.; Akoev, V.; Battina, S.; Hua, D. H.; Takemoto, D. J. PKCγ phosphorylates connexin50 on serine-430. A presentation at 2006 ARVO Annual Meeting, Apr. 30-May 4, 2006, Fort Lauderdale, Fla.). […] The cells were treated with different compounds as shown @ 10 μM for 40 minutes. A mixture of lucifer yellow (LY) and rhodamine dextran (RD) was added to the cells at the center of the coverslip. Two cuts across the coverslip were made to form a transient tear in the plasma membranes of the cells to permit dye transfer through gap junctions. Cells were incubated with the dye for 20 minutes, then fixed and examined by fluorescent microscopy. For quantitative analysis the extent of dye transfer was estimated by counting the number of LY and RD labeled cells in the microscopic field and graphed. […] PQ3 is useful as a drug having reduced gap junction inhibitory activity. The gap junction activity of other compounds of the invention may be tested as described herein without the use of undue experimentation.
Gap junction activity assay. R28 cells were grown to 90% confluency on coverslips. They were treated with PQ1 at 10 μM for 40 min. A mixture of 1% each, in PBS, Lucifer yellow (LY) and Rhodamine Dextran (RD) (Molecular Probes, Eugene, Oreg.) were added to the cells at the center of the coverslip. Two cuts across the coverslip were made to form a transient tear in the plasma membranes of the cells to permit dye entry into cells. Cells were incubated with 2.5 μl of both of the dyes for 20 min, then fixed in 2.5% paraformaldehyde, washed in PBS and examined by fluorescent microscopy using a Nikon C1 confocal microscopy. For quantitation, the extent of dye transfer was calculated by counting the number of LY-labeled cells from the initial scrape with subtraction of RD-labeled cells, as a cell damage control, in the microscopic field. Four points per slide were photographed. The experiments were repeated six times, and data are means±SEM.

ZR75 = test: Gap junction intercellular communication, ZR75 cells; assay type: cell-based, human; conditions: Table 1

Row | Structure (SMILES) | colony growth attenuation ([1]; 10 μM, 7 days, compared to control) | cell colony growth ([1]; 10 and 100 nM, 7 days) | effect on breast cancer cell colony growth [1] | effect on gap junction intercellular communication (MCF-7) | increase of gap junction activity (MDA-MB-453 cells; MDA-MB-453, 500 nM, 24 hours, compared to control) [fold] | increase in GJIC (MDA-MB-453 cells; MDA-MB-453, FIG. 4, 24 hours) | effect on gap junction intercellular communication (MDA-MB-453 cells; MDA-MB-453, 500 nM) | IC50 (Trypanosoma brucei) [µg/mL] | block of lucifer yellow dye transfer through gap junctions (R28 cells; compared to untreated control cells) | effect on gap junction intercellular communication (ZR75) | decrease in gap junction activity (GJIC) (MDA-MB-453 cells; 10 μM, 24 hours, compared to control or DMSO) | effect on gap junction intercellular communication (MDA-MB-453 cells; MDA-MB-453, concentration not given) | inhibition at 10 µM (R28 cells; Rattus norvegicus, R28, 40 min, as compared with the control, read-out: inhibitory activity on gap junction dye transfer) [%]
1 | COc1cc(NCCCN)c2nccc(C)c2c1Oc1cccc(C(F)(F)F)c1.O=C(O)CCC(=O)O [PQ1, 6-Methoxy-8-[(3-aminopropyl)amino]-4-methyl-5-(3-trifluoromethylphenyloxy) quinoline succinic acid] | 80-95% | decreased | Decrease | No effect | 1.5 | 20-50% | Increase | 0.34 | hardly any passage of the dye | Decrease | – | – | –
2 | COc1cc(N)c2nccc(C)c2c1Oc1cccc(C(F)(F)F)c1 [PQ3, 8-Amino-6-methoxy-4-methyl-5-(3-trifluoromethylphenyloxy)quinoline] | – | – | Increase | Decrease | – | – | – | 1.08 (≈ 3.11 µM) | – | No effect | 40-50% and 50% | Decrease | ~20
